These are literature values, as cited in patent US20260248735A1, “A METHOD FOR PREPARING MICROPARTICLES FOR DRUG DELIVERY” (Danmarks Tekniske Universitet, priority 2023, published 2026).

The conditions of this series: as characterised by BCS class.

For the substance calcitonin, the solubility result is “high”.
